From publication PMC3399817 (PLoS ONE, 2012)

Assays:
Experiment in all cases: KINOMEscan
Format in all cases: binding
[1] = biological target: T1, RPS6KA2(Kin.Dom.1-N-terminal) (Homo sapiens, UniProt Q15349); details: 1 uM
T1 construct: RPS6KA2(Kin.Dom.1-N-terminal); purchased Ambit KINOMEscan (DiscoverX)
How it was run: (§1)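 Kinases were scored for inhibited substrate binding in the presence of 1 μM compound; this served as the first-pass selectivity screen.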

[2] = biological target: T2, ZAK (Homo sapiens, UniProt Q9NYL2); details: 1 uM
T2 construct: purchased Ambit KINOMEscan (DiscoverX)
How it was run: as §1

[3] = biological target: T3, CDK5 (Homo sapiens, UniProt Q00535); details: CDK5, 1 uM
T3 construct: purchased Ambit KINOMEscan (DiscoverX)
How it was run: as §1

[4] = biological target: T4, MYLK4 (Homo sapiens, UniProt Q86YV6); details: MYLK4, 1 uM
T4 construct: purchased Ambit KINOMEscan (DiscoverX)
How it was run: as §1

[5] = biological target: T5, EGFR(L861Q) (Homo sapiens, UniProt P00533, L861Q); details: 1 uM
T5 construct: purchased Ambit KINOMEscan (DiscoverX)
How it was run: as §1

[6] = biological target: T6, SGK3 (Homo sapiens, UniProt Q96BR1); details: SGK3, 1 uM
T6 construct: purchased Ambit KINOMEscan (DiscoverX)
How it was run: as §1

[7] = biological target: T7, PIP5K2C (Homo sapiens, UniProt Q8TBX8); details: 1 uM
T7 construct: purchased Ambit KINOMEscan (DiscoverX)
How it was run: as §1

[8] = biological target: T8, SRC (Homo sapiens, UniProt P12931); details: 1 uM
T8 construct: purchased Ambit KINOMEscan (DiscoverX)
How it was run: as §1

[9] = biological target: T9, PIP5K1C (Homo sapiens, UniProt O60331); details: 1 uM
T9 construct: purchased Ambit KINOMEscan (DiscoverX)
How it was run: as §1

[10] = biological target: T10, SNRK (Homo sapiens, UniProt Q9NRH2); details: 1 uM
T10 construct: purchased Ambit KINOMEscan (DiscoverX)
How it was run: as §1

[11] = biological target: T11, EGFR(L858R,T790M) (Homo sapiens, UniProt P00533, L858R/T790M); details: 1 uM
T11 construct: purchased Ambit KINOMEscan (DiscoverX)
How it was run: as §1

[12] = biological target: T12, RET(M918T) (Homo sapiens, UniProt P07949, M918T); details: 1 uM
T12 construct: purchased Ambit KINOMEscan (DiscoverX)
How it was run: as §1

[13] = biological target: T13, LRRK2 (Homo sapiens, UniProt Q5S007); details: LRRK2, 1 uM
T13 construct: purchased Ambit KINOMEscan (DiscoverX)
How it was run: as §1

[14] = biological target: T14, RIPK5 (Homo sapiens, UniProt Q6XUX3); details: RIPK5, 1 uM
T14 construct: purchased Ambit KINOMEscan (DiscoverX)
How it was run: as §1

[15] = biological target: T15, PFCDPK1(P.falciparum) (Plasmodium falciparum, UniProt P62344); details: 1 uM
T15 construct: purchased Ambit KINOMEscan (DiscoverX)
How it was run: as §1

[16] = biological target: T16, ABL1(F317I)-phosphorylated (Homo sapiens, UniProt P00519, F317I); details: 1 uM
T16 construct: purchased Ambit KINOMEscan (DiscoverX)
How it was run: as §1

[17] = biological target: T17, S6K1 (Homo sapiens, UniProt P23443); details: S6K1, 1 uM
T17 construct: purchased Ambit KINOMEscan (DiscoverX)
How it was run: as §1

[18] = biological target: T18, FLT3 (Homo sapiens, UniProt P36888); details: FLT3, 1 uM
T18 construct: purchased Ambit KINOMEscan (DiscoverX)
How it was run: as §1

[19] = biological target: T19, ABL1(H396P)-phosphorylated (Homo sapiens, UniProt P00519, H396P); details: 1 uM
T19 construct: purchased Ambit KINOMEscan (DiscoverX)
How it was run: as §1

[20] = biological target: T20, CSNK1A1L (Homo sapiens, UniProt Q8N752); details: 1 uM
T20 construct: purchased Ambit KINOMEscan (DiscoverX)
How it was run: as §1

[21] = biological target: T21, BLK (Homo sapiens, UniProt P51451); details: 1 uM
T21 construct: purchased Ambit KINOMEscan (DiscoverX)
How it was run: as §1

[22] = biological target: T22, ABL1(F317L)-phosphorylated (Homo sapiens, UniProt P00519, F317L); details: 1 uM
T22 construct: purchased Ambit KINOMEscan (DiscoverX)
How it was run: as §1

[23] = biological target: T23, CAMK2G (Homo sapiens, UniProt Q13555); details: 1 uM
T23 construct: purchased Ambit KINOMEscan (DiscoverX)
How it was run: as §1

[24] = biological target: T24, NEK11 (Homo sapiens, UniProt Q8NG66); details: NEK11, 1 uM
T24 construct: purchased Ambit KINOMEscan (DiscoverX)
How it was run: as §1

[25] = biological target: T25, EGFR(L747-E749del, A750P) (Homo sapiens, UniProt P00533, A750P/DEL747-749); details: 1 uM
T25 construct: purchased Ambit KINOMEscan (DiscoverX)
How it was run: as §1

[26] = biological target: T26, RET(V804L) (Homo sapiens, UniProt P07949, V804L); details: 1 uM
T26 construct: purchased Ambit KINOMEscan (DiscoverX)
How it was run: as §1

[27] = biological target: T27, ABL1(F317L)-nonphosphorylated (Homo sapiens, UniProt P00519, F317L); details: 1 uM
T27 construct: purchased Ambit KINOMEscan (DiscoverX)
How it was run: as §1

[28] = biological target: T28, RPS6KA6(Kin.Dom.1-N-terminal) (Homo sapiens, UniProt Q9UK32); details: 1 uM
T28 construct: RPS6KA6(Kin.Dom.1-N-terminal); purchased Ambit KINOMEscan (DiscoverX)
How it was run: as §1

[29] = biological target: T29, PIK3CA(I800L) (Homo sapiens, UniProt P42336, I800L); details: 1 uM
T29 construct: purchased Ambit KINOMEscan (DiscoverX)
How it was run: as §1

[30] = biological target: T30, VRK2 (Homo sapiens, UniProt Q86Y07); details: VRK2, 1 uM
T30 construct: purchased Ambit KINOMEscan (DiscoverX)
How it was run: as §1

[31] = biological target: T31, EPHA7 (Homo sapiens, UniProt Q15375); details: EPHA7, 1 uM
T31 construct: purchased Ambit KINOMEscan (DiscoverX)
How it was run: as §1

[32] = biological target: T32, DCAMKL2 (Homo sapiens, UniProt Q8N568); details: DCAMKL2, 1 uM
T32 construct: purchased Ambit KINOMEscan (DiscoverX)
How it was run: as §1

[33] = biological target: T33, MET(M1250T) (Homo sapiens, UniProt P08581, M1250T); details: 1 uM
T33 construct: purchased Ambit KINOMEscan (DiscoverX)
How it was run: as §1

[34] = biological target: T34, EGFR(T790M) (Homo sapiens, UniProt P00533, T790M); details: 1 uM
T34 construct: purchased Ambit KINOMEscan (DiscoverX)
How it was run: as §1

[35] = biological target: T35, YANK1 (Homo sapiens, UniProt Q8WU08); details: YANK1, 1 uM
T35 construct: purchased Ambit KINOMEscan (DiscoverX)
How it was run: as §1

[36] = biological target: T36, RET(V804M) (Homo sapiens, UniProt P07949, V804M); details: 1 uM
T36 construct: purchased Ambit KINOMEscan (DiscoverX)
How it was run: as §1

[37] = biological target: T37, TRKA (Homo sapiens, UniProt P04629); details: 1 uM
T37 construct: purchased Ambit KINOMEscan (DiscoverX)
How it was run: as §1

[38] = biological target: T38, IRAK4 (Homo sapiens, UniProt Q9NWZ3); details: IRAK4, 1 uM
T38 construct: purchased Ambit KINOMEscan (DiscoverX)
How it was run: as §1

T12 sequence (P07949 29-1114 M918T): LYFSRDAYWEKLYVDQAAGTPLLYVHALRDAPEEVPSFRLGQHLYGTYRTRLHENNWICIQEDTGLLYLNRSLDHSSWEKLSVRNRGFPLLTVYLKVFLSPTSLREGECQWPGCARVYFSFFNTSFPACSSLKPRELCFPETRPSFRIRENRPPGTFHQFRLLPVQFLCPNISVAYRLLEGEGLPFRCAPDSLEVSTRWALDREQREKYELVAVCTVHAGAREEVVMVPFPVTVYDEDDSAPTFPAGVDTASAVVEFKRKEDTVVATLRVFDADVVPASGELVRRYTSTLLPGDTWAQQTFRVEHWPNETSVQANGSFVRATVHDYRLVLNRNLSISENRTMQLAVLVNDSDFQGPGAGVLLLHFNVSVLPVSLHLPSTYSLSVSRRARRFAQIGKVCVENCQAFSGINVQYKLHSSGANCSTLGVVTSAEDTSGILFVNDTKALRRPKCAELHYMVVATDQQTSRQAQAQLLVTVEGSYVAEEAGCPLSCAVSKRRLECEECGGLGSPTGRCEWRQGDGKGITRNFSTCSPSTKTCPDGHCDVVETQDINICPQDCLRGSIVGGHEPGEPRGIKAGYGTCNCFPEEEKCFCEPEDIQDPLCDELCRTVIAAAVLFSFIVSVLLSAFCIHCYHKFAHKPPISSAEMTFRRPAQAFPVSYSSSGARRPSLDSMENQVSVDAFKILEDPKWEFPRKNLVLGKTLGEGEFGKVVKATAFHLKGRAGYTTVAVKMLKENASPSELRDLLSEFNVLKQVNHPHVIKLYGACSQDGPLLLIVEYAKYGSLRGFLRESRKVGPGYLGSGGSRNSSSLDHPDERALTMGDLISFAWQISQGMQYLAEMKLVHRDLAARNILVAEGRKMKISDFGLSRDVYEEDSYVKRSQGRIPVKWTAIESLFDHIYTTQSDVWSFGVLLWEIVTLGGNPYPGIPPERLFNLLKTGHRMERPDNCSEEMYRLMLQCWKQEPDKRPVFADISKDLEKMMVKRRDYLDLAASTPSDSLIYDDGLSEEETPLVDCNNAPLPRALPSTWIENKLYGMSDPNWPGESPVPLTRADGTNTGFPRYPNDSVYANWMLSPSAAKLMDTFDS
T23 sequence (Q13555 whole entry): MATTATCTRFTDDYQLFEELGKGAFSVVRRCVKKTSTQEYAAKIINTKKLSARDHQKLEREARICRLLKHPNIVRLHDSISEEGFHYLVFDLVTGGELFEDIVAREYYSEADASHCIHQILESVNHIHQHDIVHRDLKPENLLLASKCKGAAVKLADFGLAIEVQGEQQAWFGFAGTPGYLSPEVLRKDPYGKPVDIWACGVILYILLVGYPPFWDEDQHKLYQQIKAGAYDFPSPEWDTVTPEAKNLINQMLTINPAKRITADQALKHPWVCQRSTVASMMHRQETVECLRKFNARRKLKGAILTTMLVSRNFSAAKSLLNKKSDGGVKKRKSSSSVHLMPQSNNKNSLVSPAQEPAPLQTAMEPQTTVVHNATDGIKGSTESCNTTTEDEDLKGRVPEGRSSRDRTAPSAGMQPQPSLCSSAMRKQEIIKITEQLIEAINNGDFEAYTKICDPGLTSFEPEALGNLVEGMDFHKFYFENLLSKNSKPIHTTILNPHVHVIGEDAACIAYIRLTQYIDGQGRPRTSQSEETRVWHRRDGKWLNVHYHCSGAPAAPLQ
T11 sequence (P00533 25-1210 T790M/L858R): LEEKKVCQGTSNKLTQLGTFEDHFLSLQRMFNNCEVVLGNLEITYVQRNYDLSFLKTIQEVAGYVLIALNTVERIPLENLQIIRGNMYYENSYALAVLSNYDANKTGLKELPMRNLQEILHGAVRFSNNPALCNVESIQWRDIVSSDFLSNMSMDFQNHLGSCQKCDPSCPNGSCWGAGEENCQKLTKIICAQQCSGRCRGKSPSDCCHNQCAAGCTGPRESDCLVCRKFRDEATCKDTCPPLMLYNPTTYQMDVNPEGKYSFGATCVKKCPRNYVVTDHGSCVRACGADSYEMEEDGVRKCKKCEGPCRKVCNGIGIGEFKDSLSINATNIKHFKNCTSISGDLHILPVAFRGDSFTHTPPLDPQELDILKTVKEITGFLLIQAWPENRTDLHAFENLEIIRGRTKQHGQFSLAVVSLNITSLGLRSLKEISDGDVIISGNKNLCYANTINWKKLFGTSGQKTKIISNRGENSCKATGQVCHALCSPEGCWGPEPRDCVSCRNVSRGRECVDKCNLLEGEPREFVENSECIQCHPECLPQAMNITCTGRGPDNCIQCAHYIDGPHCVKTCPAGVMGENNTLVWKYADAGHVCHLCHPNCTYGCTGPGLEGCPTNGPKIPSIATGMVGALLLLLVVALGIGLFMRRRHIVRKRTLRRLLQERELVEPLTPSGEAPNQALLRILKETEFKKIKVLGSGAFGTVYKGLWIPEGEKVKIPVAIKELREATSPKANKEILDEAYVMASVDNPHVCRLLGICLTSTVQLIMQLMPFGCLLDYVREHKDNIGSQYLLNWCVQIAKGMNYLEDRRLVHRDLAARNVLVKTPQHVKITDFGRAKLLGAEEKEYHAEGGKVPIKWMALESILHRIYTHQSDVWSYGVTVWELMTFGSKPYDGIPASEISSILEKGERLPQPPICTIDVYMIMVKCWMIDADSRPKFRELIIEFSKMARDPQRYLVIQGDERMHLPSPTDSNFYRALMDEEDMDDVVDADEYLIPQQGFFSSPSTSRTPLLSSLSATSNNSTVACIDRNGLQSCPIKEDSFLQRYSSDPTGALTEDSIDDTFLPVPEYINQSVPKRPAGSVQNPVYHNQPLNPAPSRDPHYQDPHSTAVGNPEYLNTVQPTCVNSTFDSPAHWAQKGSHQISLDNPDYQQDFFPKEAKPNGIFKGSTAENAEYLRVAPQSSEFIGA
T9 sequence (O60331 whole entry): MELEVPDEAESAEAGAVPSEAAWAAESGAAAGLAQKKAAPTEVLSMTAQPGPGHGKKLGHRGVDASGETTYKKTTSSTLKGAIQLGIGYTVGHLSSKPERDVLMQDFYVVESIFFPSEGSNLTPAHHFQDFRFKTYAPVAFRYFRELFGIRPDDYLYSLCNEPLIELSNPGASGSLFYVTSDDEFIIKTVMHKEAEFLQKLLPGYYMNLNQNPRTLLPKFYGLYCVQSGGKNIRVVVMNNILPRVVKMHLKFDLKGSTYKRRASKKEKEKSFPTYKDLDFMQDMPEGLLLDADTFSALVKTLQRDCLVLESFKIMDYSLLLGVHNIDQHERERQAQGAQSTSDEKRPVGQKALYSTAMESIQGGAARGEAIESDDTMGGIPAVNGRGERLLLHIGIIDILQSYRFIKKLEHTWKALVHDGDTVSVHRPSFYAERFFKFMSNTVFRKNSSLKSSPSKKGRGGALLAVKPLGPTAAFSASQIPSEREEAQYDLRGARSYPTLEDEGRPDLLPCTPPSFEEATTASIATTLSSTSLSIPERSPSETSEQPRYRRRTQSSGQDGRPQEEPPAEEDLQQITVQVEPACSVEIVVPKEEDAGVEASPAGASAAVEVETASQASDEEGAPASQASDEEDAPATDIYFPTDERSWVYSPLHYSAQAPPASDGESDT
T20 sequence (Q8N752 whole entry): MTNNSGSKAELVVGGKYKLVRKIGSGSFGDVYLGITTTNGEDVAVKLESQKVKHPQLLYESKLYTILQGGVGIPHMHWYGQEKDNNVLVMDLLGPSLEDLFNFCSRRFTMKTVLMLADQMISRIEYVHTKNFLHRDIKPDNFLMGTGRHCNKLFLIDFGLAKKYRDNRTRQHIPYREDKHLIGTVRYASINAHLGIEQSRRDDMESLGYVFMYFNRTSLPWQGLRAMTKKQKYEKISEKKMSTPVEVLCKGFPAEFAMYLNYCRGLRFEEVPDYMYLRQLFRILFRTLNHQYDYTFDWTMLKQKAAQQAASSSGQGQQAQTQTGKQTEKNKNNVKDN
T30 sequence (Q86Y07 whole entry): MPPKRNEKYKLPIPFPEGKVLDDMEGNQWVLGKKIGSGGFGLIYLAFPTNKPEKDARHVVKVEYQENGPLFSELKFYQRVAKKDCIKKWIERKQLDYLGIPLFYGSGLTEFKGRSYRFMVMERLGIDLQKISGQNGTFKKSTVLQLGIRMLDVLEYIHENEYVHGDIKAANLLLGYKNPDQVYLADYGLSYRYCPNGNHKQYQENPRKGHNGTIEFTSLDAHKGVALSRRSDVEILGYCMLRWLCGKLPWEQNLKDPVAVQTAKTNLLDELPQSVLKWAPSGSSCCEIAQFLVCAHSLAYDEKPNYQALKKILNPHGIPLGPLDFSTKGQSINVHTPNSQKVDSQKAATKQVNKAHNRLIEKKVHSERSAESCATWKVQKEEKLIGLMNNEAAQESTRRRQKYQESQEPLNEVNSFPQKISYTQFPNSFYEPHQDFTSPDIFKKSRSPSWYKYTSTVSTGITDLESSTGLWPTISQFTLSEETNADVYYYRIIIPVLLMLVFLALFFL
T36 sequence (P07949 29-1114 V804M): as the sequence (P07949 29-1114 M918T) above, with V776M, T890M counted along it
T4 sequence (Q86YV6 whole entry): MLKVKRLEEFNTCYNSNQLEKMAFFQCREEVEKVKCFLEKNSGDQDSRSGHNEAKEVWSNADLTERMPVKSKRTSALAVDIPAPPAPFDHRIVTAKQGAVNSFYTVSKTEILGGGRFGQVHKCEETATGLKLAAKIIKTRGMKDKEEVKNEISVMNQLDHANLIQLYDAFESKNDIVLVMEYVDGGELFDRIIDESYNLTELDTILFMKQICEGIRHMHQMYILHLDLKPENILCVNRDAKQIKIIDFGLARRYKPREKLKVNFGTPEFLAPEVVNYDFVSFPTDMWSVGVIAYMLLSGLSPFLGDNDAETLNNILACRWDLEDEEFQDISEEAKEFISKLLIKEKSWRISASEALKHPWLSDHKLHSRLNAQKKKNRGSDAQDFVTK
T26 sequence (P07949 29-1114 V804L): as the sequence (P07949 29-1114 M918T) above, with V776L, T890M counted along it

## COc1ccc(-c2cc3nccn3c(Nc3ncccc3C(N)=O)n2)cc1OC.Cl.Cl [BAY61-3606, 2-[7-(3,4-dimethoxyphenyl)-imidazo [1,2-c]pyrimidin-5-ylamino] nicotinamide dihydrochloride, reference compound]
[1]
  % binding compared to no inhibitor control: 92%

## COc1ccccc1Nc1nc(-c2ccc(OC)c(OC)c2)cc2nccn12 [BAY derivative 6]
[2]
  % binding compared to no inhibitor control: 92%
[3]
  % binding compared to no inhibitor control: 100%
[4]
  % binding compared to no inhibitor control: 100%
[5]
  % binding compared to no inhibitor control: 68%
[6]
  % binding compared to no inhibitor control: 100%
[7]
  % binding compared to no inhibitor control: 99%
[8]
  % binding compared to no inhibitor control: 51%
[9]
  % binding compared to no inhibitor control: 71%
[10]
  % binding compared to no inhibitor control: 94%
[11]
  % binding compared to no inhibitor control: 85%
[12]
  % binding compared to no inhibitor control: 72%
[13]
  % binding compared to no inhibitor control: 95%
[14]
  % binding compared to no inhibitor control: 100%
[15]
  % binding compared to no inhibitor control: 67%
[16]
  % binding compared to no inhibitor control: 86%
[17]
  % binding compared to no inhibitor control: 84%
[18]
  % binding compared to no inhibitor control: 52%
[19]
  % binding compared to no inhibitor control: 100%
[20]
  % binding compared to no inhibitor control: 100%
[21]
  % binding compared to no inhibitor control: 43%
[22]
  % binding compared to no inhibitor control: 100%
[23]
  % binding compared to no inhibitor control: 100%
[24]
  % binding compared to no inhibitor control: 84%
[25]
  % binding compared to no inhibitor control: 74%
[26]
  % binding compared to no inhibitor control: 95%
[27]
  % binding compared to no inhibitor control: 100%
[28]
  % binding compared to no inhibitor control: 70%
[29]
  % binding compared to no inhibitor control: 100%
[30]
  % binding compared to no inhibitor control: 88%
[31]
  % binding compared to no inhibitor control: 100%
[32]
  % binding compared to no inhibitor control: 100%
[33]
  % binding compared to no inhibitor control: 100%
[34]
  % binding compared to no inhibitor control: 48%
[35]
  % binding compared to no inhibitor control: 100%
[36]
  % binding compared to no inhibitor control: 94%
[37]
  % binding compared to no inhibitor control: 98%
[38]
  % binding compared to no inhibitor control: 100%
